This note sets out measurements from patent US20180036292A1, “PHARMACEUTICAL COMPOSITIONS FOR THE TREATMENT OF BACTERIAL INFECTIONS” (WOCKHARDT LIMITED, priority 2016, published 2018).

Read-outs that look alike come from different tables or passages of the source.

The nature of data set [1]: Study 2: Phase 1 multiple ascending dose, drug concentrations in plasma and polymorphonuclear leukocytes (PMN). The format is in vivo, human. To be noted: healthy subjects, 600, 800 and 1000 mg once daily day 1 to day 7; sampling day 1 and day 7. The protocol: A Phase 1, randomised, double-blind, single center, placebo controlled sequential cohort study in a maximum of 3 cohort of 10 healthy male and/or female subject each was conducted. Subjects received ascending multiple doses of compound of Formula (I) (600, 800 and 1000 mg) or matching placebo once daily on day 1 to day 7. Blood sampling was performed on day 1 and day 7 to determine the drug concentrations in plasma and polymorphonuclear leukocytes (PMN) (FIG. 2 and FIG. 3). […] Blood sampling was also undertaken at intermittent days to determine the number of doses required to attain the steady state.

The nature of data set [2]: Study 3: concentrations in plasma, epithelial lining fluid (ELF) and alveolar macrophages (AM) after 800 mg once daily for three days. The format is in vivo, human. The note with it: for Kp / Kp at 3 h / Kp at 6 h / Kp at 9 h / Kp at 12 h / Kp at 24 h / Kp at 48 h: both sexes, human; for Kp: oral, range over the 48-hour period after drug administration, 800 mg once daily for 3 days; for Kp at 3 h / Kp at 6 h / Kp at 9 h / Kp at 12 h / Kp at 24 h / Kp at 48 h: healthy subjects, 800 mg oral once daily for 3 days, mean ± SD; for Kp at 3 h: sampling time 3 hr after third dose; for Kp at 6 h: sampling time 6 hr after third dose; for Kp at 9 h: sampling time 9 hr after third dose; for Kp at 12 h: sampling time 12 hr after third dose; for Kp at 24 h: sampling time 24 hr after third dose; for Kp at 48 h: sampling time 48 hr after third dose. The protocol: Healthy male and female subjects 18 years of age or older who met the study entry criteria were enrolled into the pharmacokinetic study. Each subject received 800 mg (2 tablets of 400 mg) of compound of Formula (I) administered once daily for three days, with 240 ml of drinking water at a consistent time within two hours after a standard meal and direct observation at the study site. Blood samples were collected to measure concentration of compound of Formula (I) in plasma at 3, 6, 9, 12, 24, and 48 hours following the third dose of compound of Formula (I). Similarly, bronchoscopy was done to measure concentration of compound of Formula (I) in epithelial lining fluid (ELF) and alveolar macrophages (AM) 3, 6, 9, 12, 24, and 48 hours following the third dose of compound of Formula (I). The mean (±SD) concentrations of compound of Formula (I) in plasma (total), ELF, and AM at the bronchopulmonary sampling times are illustrated in FIG. 4. […] Table 1 gives the mean (±SD) ratios of compound of Formula (I) in ELF or AM to the simultaneous total plasma concentrations. The mean ratios of ELF and AM to simultaneous total plasma concentration for compound of Formula (I) during the 48-hour period after drug administration ranged from 10 to 30 and 270 to 800, respectively.

Setting [3] is: alveolar macrophages (AM) / plasma (total), read-out: AM to Plasma (Total) concentration ratio.
Where [4] appears, read: epithelial lining fluid (ELF) / plasma (total), read-out: ELF to Plasma (Total) concentration ratio.

With `CC[C@@H]1OC(=O)[C@H](C)C(=O)[C@H](C)[C@@H](OC2O[C@H](C)C[C@H](N(C)C)[C@H]2O)[C@](C)(OC)C[C@@H](C)C(=O)[C@H](C)[C@H]2[C@H](/C(N)=N/O[C@@H](C)c3nnc(-c4ccccn4)s3)C(=O)O[C@@]21C` (stereo partly shown) [compound of Formula (I)], the “accumulation in polymorphonuclear leukocytes (PMN) in comparison to plasma” value in data set [1] is recorded as “accumulated more in polymorphonuclear leukocytes (PMN) in comparison to plasma”. In addition, the Kp in data set [2] (alveolar macrophages (AM) / plasma (total), read-out: mean ratio of AM to simultaneous total plasma concentration) was in the range of 270 to 800. Further, in data set [2] (setting [3]), the Kp at 3 h is 274 ± 187, the Kp at 6 h worked out at 378 ± 172, the Kp at 9 h worked out at 383 ± 260 and the Kp at 12 h was found to be 791 ± 614. For the same compound, in data set [2] (setting [3]), the Kp at 24 h was 486 ± 193 and the Kp at 48 h came out at 428 ± 189. Besides, the Kp in data set [2] (epithelial lining fluid (ELF) / plasma (total), read-out: mean ratio of ELF to simultaneous total plasma concentration) lay in the range of 10 to 30. In addition, in data set [2] (setting [4]), the Kp at 3 h was 17 ± 12, the Kp at 6 h amounted to 14.5 ± 8.8, the Kp at 9 h worked out at 10.4 ± 6.5 and the Kp at 12 h was 12.4 ± 9.3. In addition, in data set [2] (setting [4]), the Kp at 24 h was determined as 17.6 ± 6.2 and the Kp at 48 h came to 27.2 ± 6.5. The “concentrations in ELF and AM compared with simultaneous plasma concentrations” value in data set [2] (oral 800 mg, throughout the 48-hour period after 3 days of once-daily dosing) is “significantly higher in ELF and AM than simultaneous plasma concentrations”.
